The values that follow come from PMC9993039, “Synthesis and radiolabelling of PSMA-targeted derivatives containing GYK/MVK cleavable linkers” (Royal Society Open Science, 2023).

The format of series [1] is in vitro ADME, mouse. The protocol:
Stability was determined for both the In-111 and Lu-177 labelled compounds by mixing 20 µl of radiolabelled sample (approx. 5 MBq) with 80 µl phosphate buffered saline (PBS) (0.01 M, pH 7.4), or mixing 70 µl of radiolabelled sample (approx. 20 MBq) with 330 µl of mouse serum, and heating at 37°C for up to 24 h. After incubation, 50 µl of the mouse serum solution is added to a separate vial containing acetonitrile (50 µl) and the sample is centrifuged for 20 min. The supernatant and precipitate are separated, and the activity is measured to determine the binding to serum proteins. The supernatant is then analysed by radio-HPLC. The PBS solution is loaded directly onto the radio-HPLC.

The test system of series [2] is renal brush border (RBB) enzymes. Conditions: Cy5 labelled model peptide; cited from earlier work. The text has this:
High kidney uptake of radiopharmaceuticals can usually be explained by the long residence time of radiometabolites generated after lysosomal proteolysis. This process is followed by glomerular filtration and reabsorption of the radiometabolites in renal cells. By inserting a linker which is specifically cleaved by enzymes on the brush border membrane located in the lumen of the proximal renal tubule, the radiometal-chelator moiety can be rapidly excreted via the bladder while the peptide remains in the kidneys. The MVK sequence was initially conjugated to antibody fragments by Uehara et ...

The conditions of series [3]: in vivo; cited from earlier work. The text has this: In this study, we synthesized PSMA-targeted radiopharmaceuticals that combined an albumin binder and a cleavable linker to optimize their therapeutic efficacy. We selected the albumin-binder containing PSMA-617 derivative HTK01169 (figure 1), reported by Kuo et al., as a reference. [^177Lu]Lu-HTK01169 delivers an eightfold higher dose to the tumour than [^177Lu]Lu-PSMA-617, but also a 17-fold higher dose to the kidneys. The amino acid sequences Gly-Tyr-Lys (GYK) and Met-Val-Lys (MVK) were selected as the cleavable linkers. Effective cleavage of the MVK sequence in ^67/68Ga-labell ... || The purpose of this study is to report the synthesis and radiolabelling of new PSMA derivatives containing: (i) a PSMA-targeting vector, (ii) an albumin binder, namely 4-(p-iodophenyl)butyric acid, (iii) an amino acid sequence which could be specifically recognized and cleaved by renal brush border (RBB) enzymes, and (iv) a DOTA chelator which can be labelled with In-111 for imaging or Lu-177 for therapy. Previous studies reported that presence of an albumin-binding moiety increases blood residence time of the radiopharmaceutical agent, and ultimately leads to a higher accumulation of the PSMA ...

The subject of series [4] is renal brush border enzymes. The settings on record: labelled with gallium-68; cited from earlier work. From the text:
We hypothesized that this radiolabelled impurity might come from the radiation-induced oxidation of the methionine residue of the cleavable linker. Bendre et al. recently synthesized DOTA-AmBz-M(O)VK(HTK01166)-OH, the oxidized analogue of the PSMA-targeted derivative DOTA-AmBz-MVK(HTK01166)-OH, and performed labelling with gallium-68. They observed that the oxidized product was not cleaved by the renal brush border enzymes. It confirms that oxidation of the methionine is undesirable, as it leads to loss of enzyme recognition and consequently less cleavage of the conjugate. This radiolys ...

For series [5] the following is noted: in vivo; cited from earlier work. From the text:
The purpose of this study is to report the synthesis and radiolabelling of new PSMA derivatives containing: (i) a PSMA-targeting vector, (ii) an albumin binder, namely 4-(p-iodophenyl)butyric acid, (iii) an amino acid sequence which could be specifically recognized and cleaved by renal brush border (RBB) enzymes, and (iv) a DOTA chelator which can be labelled with In-111 for imaging or Lu-177 for therapy. Previous studies reported that presence of an albumin-binding moiety increases blood residence time of the radiopharmaceutical agent, and ultimately leads to a higher accumulation of the PSMA ...
The source holds these as a separate data set.

For series [6], the system named is metastatic castration-resistant prostate cancer. Conditions: cited from earlier work. From the text: The prostate-specific membrane antigen (PSMA) is overexpressed in prostate cancer cells, and its expression increases with disease progression. PSMA is therefore an attractive target for TRT of prostate cancer. Currently, several compounds targeting this protein are being investigated for imaging and treatment of prostate cancer, with PSMA-617 advancing as a lead candidate (figure 1).

Where [7] appears, read: plus standard of care, versus standard of care, ref NCT03511664.

Take `N[C@@H](CCCCNC(=O)CN1CCN(CC(=O)O)CCN(CC(=O)O)CCN(CC(=O)O)CC1)C(=O)N[C@@H](Cc1ccc(O)cc1)C(=O)NCC(=O)NCCCC[C@H](NC(=O)[C@H](CCC(=O)O)NC(=O)CCCc1ccc(I)cc1)C(=O)NC[C@H]1CC[C@H](C(=O)N[C@@H](Cc2ccc3ccccc3c2)C(=O)NCCCC[C@H](NC(=O)N[C@@H](CCC(=O)O)C(=O)O)C(=O)O)CC1` [[^111In]-7] [metal not drawn]: in series [1], the “peak at 2.9 min (radiolabelled side-product) in mouse serum” value turned out to be 62%.

With “H-GGGYK(Cy5)-NH2 [Cy5 labelled model peptide with GYK linker]”, the “cleavage on incubation with RBB enzymes” value in series [2] is listed as “quantitative cleavage”.

As for “H-GGGFK(Cy5)-NH2 [Cy5 labelled model peptide with GFK linker]”, the “cleavage on incubation with RBB enzymes” value in series [2] is listed as 82%.

Turning to `O=C(O)CC[C@H](NC(=O)N[C@@H](CCCCNC(=O)[C@H](Cc1ccc2ccccc2c1)NC(=O)[C@H]1CC[C@H](CNC(=O)[C@H](CCCCNC(=O)CN2CCN(CC(=O)O)CCN(CC(=O)O)CCN(CC(=O)O)CC2)NC(=O)[C@H](CCC(=O)O)NC(=O)CCCc2ccc(I)cc2)CC1)C(=O)O)C(=O)O` [[^177Lu]Lu-HTK01169, metal not drawn], in series [3], the “radiation dose to the kidneys relative to [177Lu]Lu-PSMA-617” value is 17 fold and the “radiation dose to the tumour relative to [177Lu]Lu-PSMA-617” value is “eightfold”.

Turning to DOTA-AmBz-M(O)VK(HTK01166)-OH, the “cleavage by renal brush border enzymes” value in series [4] is “not cleaved”.

Regarding [^177Lu]Lu-PSMA-617, in series [5], the “uptake in the kidneys at 1 h” value was “approximately 10 % IA g^−1” and the “uptake in the kidneys at 24 h” value was “less than 1 % IA g^−1”. In series [6], the “patients who do not respond significantly to the treatment” value was “approximately 30%”. Besides, the “incidence of adverse effects (grade 3 or 4)” value in series [6] (human, in vivo) was 52.7%. Moreover, the response rates result in series [6] (patients) is reported as “over 50%”. Moreover, in series [6] (setting [7]), the “imaging-based progression free survival (median)” value is recorded as 8.7 months and the “overall survival (median)” value was 15.3 months.
